Legend:
[1] = molecular target: T1, Adrenergic receptor beta (Homo sapiens) (UniProt P08588+P07550+P13945); conditions: Cavia porcellus
[2] = molecular target: T1, Adrenergic receptor beta (Homo sapiens); conditions: Cavia porcellus; remark: listed apart in the source
Description: Tested for potent Beta adrenergic receptor action in the atria of guinea pig

pD2 [1]: 7.8
pD2 [2]: 8.8
SMILES: COc1cc(CC2NCCc3cc(O)c(O)cc32)cc(OC)c1OC (configuration not stated)
